For 24 molecules, IC50 results are on record in US7329657B2, “Indazolyl-substituted pyrroline compounds as kinase inhibitors” (Ortho-McNeil Pharmaceutical, Inc., priority 2000, dated 2008).

Type in all cases: biochemical
For assay [1], the target named is PKC β-II (Homo sapiens, UniProt P05771). The assay can be described thus: Protein Kinase C Histone-Based Assay, β-II isoform. To be noted: histone III substrate, 30 μM ATP, 10 min at 30° C.; read-out: PKC Activity (IC50 μM, Histone Based Assay) Beta II. As to the method:
(§1) Compounds were evaluated for PKC selectivity using histone III as the substrate. […] The reaction was incubated for 10 min at 30° C. Reactions were terminated by TCA precipitation and spotting on Whatman P81 filters. Filters were washed in 75 mM phosphoric acid and the radioactivity quantified by liquid scintillation counting.

Assay [2] addresses PKC α (Homo sapiens, UniProt P17252). In words: Protein Kinase C Histone-Based Assay, α isoform. The settings on record: histone III substrate, 30 μM ATP, 10 min at 30° C.; read-out: PKC Activity (IC50 μM, Histone Based Assay) Alpha. As to the method:
as §1

Assay [3] has as its target PKC γ (Homo sapiens, UniProt P05129). The assay can be described thus: Protein Kinase C Histone-Based Assay, γ isoform. To be noted: histone III substrate, 30 μM ATP, 10 min at 30° C.; read-out: PKC Activity (IC50 μM, Histone Based Assay) Gamma. As for the experimental part:
as §1

PKC β-II, sequence (P05771 1-673 isoform P05771-2): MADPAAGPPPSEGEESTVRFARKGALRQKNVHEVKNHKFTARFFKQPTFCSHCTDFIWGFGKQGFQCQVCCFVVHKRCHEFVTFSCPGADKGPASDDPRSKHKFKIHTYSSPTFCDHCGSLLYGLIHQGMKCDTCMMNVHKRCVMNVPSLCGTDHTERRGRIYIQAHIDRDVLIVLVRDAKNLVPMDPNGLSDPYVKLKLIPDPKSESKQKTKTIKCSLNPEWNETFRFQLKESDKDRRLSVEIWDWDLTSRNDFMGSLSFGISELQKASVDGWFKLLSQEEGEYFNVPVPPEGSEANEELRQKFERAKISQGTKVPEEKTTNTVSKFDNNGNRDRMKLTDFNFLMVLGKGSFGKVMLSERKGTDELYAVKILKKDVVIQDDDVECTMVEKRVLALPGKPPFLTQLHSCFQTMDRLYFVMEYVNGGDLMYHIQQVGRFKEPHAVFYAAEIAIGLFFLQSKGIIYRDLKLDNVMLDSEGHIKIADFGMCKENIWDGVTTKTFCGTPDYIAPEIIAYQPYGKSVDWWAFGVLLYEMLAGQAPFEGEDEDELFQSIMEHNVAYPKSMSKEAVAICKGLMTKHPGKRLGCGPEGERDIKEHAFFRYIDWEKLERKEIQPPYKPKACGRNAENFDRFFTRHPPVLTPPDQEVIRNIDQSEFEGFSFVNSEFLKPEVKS

On to `O=C1NC(=O)C(c2nn(CCC3OCCO3)c3ccccc23)=C1c1cn(-c2cnc3ccccc3c2)c2ccccc12` [Compound 24, 3-[1-[2-(1,3-dioxolan-2-yl)ethyl]-1H-indazol-3-yl]-4-[1-(3-quinolinyl)-1H-indol-3-yl]-1H-pyrrole-2,5-dione], for which the IC50 – broadly, the midpoint of a concentration-inhibition curve – in assay [1] is 0.029 µM; in assay [2], 0.2 µM; in assay [3], 1.29 µM.

On to `O=CCCn1nc(C2=C(c3cn(-c4cnc5ccccc5c4)c4ccccc34)C(=O)NC2=O)c2ccccc21` [Compound 23, 3-[2,5-dihydro-2,5-dioxo-4-[1-(3-quinolinyl)-1H-indol-3-yl]-1H-pyrrol-3-yl]-1H-indazole-1-propionaldehyde], for which the figures for the IC50 in assay [1], in assay [2] and in assay [3] were 0.054 µM, 0.546 µM and 0.188 µM, respectively.

On to `CN(C)CCCn1nc(C2=C(c3cn(Cc4ccc5ccccc5n4)c4ccccc34)C(=O)NC2=O)c2ccccc21` [Compound 67, 3-[1-[3-(dimethylamino)propyl]-1H-indazol-3-yl]-4-[1-(2-quinolinylmethyl)-1H-indol-3-yl]-1H-pyrrole-2,5-dione], for which the values for the IC50 in assay [1], in assay [2] and in assay [3] were 0.016 µM, 1.48 µM and 0.65 µM, respectively.

On to `O=C1NC(=O)C(c2nn(CCCN3CCCC3)c3ccccc23)=C1c1cn(-c2ccc3ccccc3c2)c2ccccc12` [Compound 85, 3-[1-(2-naphthalenyl)-1H-indol-3-yl]-4-[1-[3-(1-pyrrolidinyl)propyl]-1H-indazol-3-yl]-1H-pyrrole-2,5-dione], for which the IC50 in assay [1] was 0.044 µM; in assay [2] it was 0.477 µM; in assay [3], 0.511 µM.

Turning to `O=C1NC(=O)C(c2nn(CCCN3CCOCC3)c3ccccc23)=C1c1cn(-c2ccc3ccccc3c2)c2ccccc12` [Compound 70, 3-[1-[3-(4-morpholinyl)propyl]-1H-indazol-3-yl]-4-[1-(2-naphthalenyl)-1H-indol-3-yl]-1H-pyrrole-2,5-dione], the IC50 was found to be 0.018 µM in assay [1], 0.259 µM in assay [2] and 0.342 µM in assay [3].

For the molecule `O=C1NC(=O)C(c2nn(CCCN3CCOCC3)c3ccccc23)=C1c1cn(-c2cnc3ccccc3c2)c2ccccc12` [Compound 22, 3-[1-[3-(4-morpholinyl)propyl]-1H-indazol-3-yl]-4-[1-(3-quinolinyl)-1H-indol-3-yl]-1H-pyrrole-2,5-dione], the concentration for half-maximal inhibition (IC50) in assay [1] turned out to be 0.006 µM; in assay [2], 0.043 µM; in assay [3], 0.09 µM.

With `CN(C)CCCn1nc(C2=C(c3cn(-c4cccnc4)c4ccccc34)C(=O)NC2)c2ccccc21` [Compound 125, 4-[1-[3-(dimethylamino)propyl]-1H-indazol-3-yl]-1,5-dihydro-3-[1-(3-pyridinyl)-1H-indol-3-yl]-2H-pyrrol-2-one], the results for the IC50 in assay [1] and in assay [2] were 0.005 µM and 0.339 µM, respectively.

In the case of `CN(C)CCCn1nc(C2=C(c3cn(-c4cccnc4)c4ccccc34)C(=O)NC2=O)c2ccccc21` [Compound 12, 3-[1-[3-(dimethylamino)propyl]-1H-indazol-3-yl]-4-[1-(3-pyridinyl)-1H-indol-3-yl]-H-pyrrole-2,5-dione], the IC50 in assay [1] was determined as 0.007 µM; in assay [2], 0.124 µM; in assay [3] it was 0.213 µM.

As to `O=C1NC(=O)C(c2nn(CCCO)c3ccccc23)=C1c1cn(-c2ccc3ccccc3c2)c2ccccc12` [Compound 84, 3-[1-(3-hydroxypropyl)-1H-indazol-3-yl]-4-[1-(2-naphthalenyl)-1H-indol-3-yl]-1H-pyrrole-2,5-dione], the figures for the IC50 in assay [1], in assay [2] and in assay [3] were 0.057 µM, 0.358 µM and 0.206 µM, respectively.

As to `CN(C)CCCn1nc(C2=C(c3cn(-c4ccccc4)c4ccccc34)C(=O)NC2=O)c2ccccc21` [Compound 45, 3-[1-[3-(dimethylamino)propyl]-1H-indazol-3-yl]-4-(1-phenyl-1H-indol-3-yl)-1H-pyrrole-2,5-dione], the IC50 in assay [1] stood at 0.01 µM; in assay [2] it was 0.071 µM; in assay [3], 0.168 µM.

`CN(C)CCCn1nc(C2=C(c3cn(-c4ccc5ccccc5c4)c4ccccc34)C(=O)NC2=O)c2ccccc21` [Compound 14, 3-[1-[3-(dimethylamino)propyl]-1H-indazol-3-yl]-4-[1-(2-naphthalenyl)-1H-indol-3-yl]-1H-pyrrole-2,5-dione]: the IC50 in assay [1] came out at 0.005 µM; in assay [2] it was 0.057 µM; in assay [3], 0.115 µM.

Take `CN(C)CCCn1nc(C2=C(c3cn(-c4ccc5cc(O)ccc5c4)c4ccccc34)C(=O)NC2=O)c2ccccc21` [Compound 64, 3-[1-[3-(dimethylamino)propyl]-1H-indazol-3-yl]-4-[1-(6-hydroxy-2-naphthalenyl)-1H-indol-3-yl]-1H-pyrrole-2,5-dione]: the IC50 in assay [1] was determined as 0.013 µM; in assay [2], 0.101 µM; in assay [3] it was 0.215 µM.

Take `CN(C)CCCn1nc(C2=C(c3cn(-c4csc5ccccc45)c4ccccc34)C(=O)NC2=O)c2ccccc21` [Compound 60, 3-(1-benzo[b]thien-3-yl-1H-indol-3-yl)-4-[1-[3-(dimethylamino)propyl]-1H-indazol-3-yl]-1H-pyrrole-2,5-dione]: the IC50 in assay [1] was 0.037 µM; in assay [2], 0.611 µM; in assay [3], 0.713 µM.

Consider `CN(C)CCn1nc(C2=C(c3cn(-c4ccc5ccccc5c4)c4ccccc34)C(=O)NC2=O)c2ccccc21` [Compound 101, 3-[1-[2-(dimethylamino)ethyl]-1H-indazol-3-yl]-4-[1-(2-naphthalenyl)-1H-indol-3-yl]-1H-pyrrole-2,5-dione], for which the IC50 stood at 0.019 µM in assay [1], 0.08 µM in assay [2] and 0.134 µM in assay [3].

Consider `CN(C)CCn1nc(C2=C(c3cn(-c4csc5ccccc45)c4ccccc34)C(=O)NC2=O)c2ccccc21` [Compound 103, 3-(1-benzo[b]thien-3-yl-1H-indol-3-yl)-4-[1-[2-(dimethylamino)ethyl]-1H-indazol-3-yl]-1H-pyrrole-2,5-dione], for which the IC50 stood at 0.02 µM in assay [1], 0.189 µM in assay [2] and 0.161 µM in assay [3].

Turning to `CN(CCO)CCCn1nc(C2=C(c3cn(-c4ccc5ccccc5c4)c4ccccc34)C(=O)NC2=O)c2ccccc21` [Compound 88, 3-[1-[3-[(2-hydroxyethyl)methylamino]propyl]-1H-indazol-3-yl]-4-[1-(2-naphthalenyl)-1H-indol-3-yl]-1H-pyrrole-2,5-dione], the figures for the IC50 in assay [1], in assay [2] and in assay [3] were 0.038 µM, 0.422 µM and 0.232 µM, respectively.

As for `CN(C)CCCn1nc(C2=C(c3cn(-c4cnc5ccccc5c4)c4ccccc34)C(=O)NC2=O)c2ccccc21` [Compound 19, 3-[1-[3-(dimethylamino)propyl]-1H-indazol-3-yl]-4-[1-(3-quinolinyl)-1H-indol-3-yl]-1H-pyrrole-2,5-dione], the IC50 in assay [1] stood at 0.004 µM; in assay [2], 0.011 µM; in assay [3] it was 0.047 µM.

For `CN(C)CCCn1nc(C2=C(c3cn(-c4cccs4)c4ccccc34)C(=O)NC2=O)c2ccccc21` [Compound 9, 3-[1-[3-(dimethylamino)propyl]-1H-indazol-3-yl]-4-[1-(2-thienyl)-1H-indol-3-yl]-1H-pyrrole-2,5-dione], the IC50 in assay [1] is 0.008 µM; in assay [2] it was 0.141 µM; in assay [3], 0.262 µM.

In the case of `NCCCn1nc(C2=C(c3cn(-c4cccnc4)c4ccccc34)C(=O)NC2=O)c2ccccc21` [Compound 109, 3-[1-(3-aminopropyl)-1H-indazol-3-yl]-4-[1-(3-pyridinyl)-1H-indol-3-yl]-1H-pyrrole-2,5-dione], the results for the IC50 in assay [1], in assay [2] and in assay [3] were 0.005 µM, 0.032 µM and 0.231 µM, respectively.

Consider `CN(C)CCCn1nc(C2=C(c3cn(-c4cncc5ccccc45)c4ccccc34)C(=O)NC2=O)c2ccccc21` [Compound 16, 3-[1-[3-(dimethylamino)propyl]-1H-indazol-3-yl]-4-[1-(4-isoquinolinyl)-1H-indol-3-yl]-1H-pyrrole-2,5-dione], for which the half-inhibitory concentration (IC50) in assay [1] is 0.015 µM; in assay [2] it was 0.29 µM; in assay [3] it was 0.253 µM.

With `CN(C)CCCn1nc(C2=C(c3cn(-c4cncnc4)c4ccccc34)C(=O)NC2=O)c2ccccc21` [Compound 34, 3-[1-[3-(dimethylamino)propyl]-1H-indazol-3-yl]-4-[1-(5-pyrimidinyl)-1H-indol-3-yl]-1H-pyrrole-2,5-dione], the IC50 in assay [1] was found to be 0.009 µM; in assay [2], 0.205 µM; in assay [3], 0.665 µM.

Regarding `CN(C)CCn1nc2ccccc2c1C1=C(c2cn(-c3csc4ccccc34)c3ccccc23)C(=O)NC1=O` [Compound 123, 3-(1-benzo[b]thien-3-yl-1H-indol-3-yl)-4-[2-[2-(dimethylamino)ethyl]-2H-indazol-3-yl]-1H-pyrrole-2,5-dione], in assay [1], the IC50 amounted to 0.026 µM.

For `CN(C)CCCn1nc(C2=C(c3cn(-c4cccc5ccccc45)c4ccccc34)C(=O)NC2=O)c2ccccc21` [Compound 15, 3-[1-[3-(dimethylamino)propyl]-1H-indazol-3-yl]-4-[1-(1-naphthalenyl)-1H-indol-3-yl]-1H-pyrrole-2,5-dione], the IC50 in assay [1] came to 0.029 µM; in assay [2], 1.23 µM; in assay [3] it was 3.35 µM.

Consider `CN(C)CCCn1nc(C2=C(c3cn(-c4ccccn4)c4ccccc34)C(=O)NC2=O)c2ccccc21` [Compound 31, 3-[1-[3-(dimethylamino)propyl]-1H-indazol-3-yl]-4-[1-(2-pyridinyl)-1H-indol-3-yl]-1H-pyrrole-2,5-dione], for which the IC50 is 0.015 µM in assay [1], 0.106 µM in assay [2] and 0.091 µM in assay [3].
